From ChEMBL document CHEMBL1201862, “PubChem BioAssay data set” (2004)
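48-hour exposure; five concentrations; linearly interpolated endpoints. Here, GI50 denotes the concentration required for 50% inhibition of growth.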 Active and inactive are the calls of the source. No stated cut-off is given here; in the data, active = GI50 up to about 1.1 µM and inactive = higher.

Experiments:
Experiment in all cases: growth of human tumour cells (NCI), 48 h
[1] = system: ACHN
[2] = system: HCT-116
[3] = system: HOP-18
[4] = system: LOX IMVI
[5] = system: LXFL 529
[6] = system: MOLT-4
[7] = system: NCI-H23
[8] = system: NCI-H460
[9] = system: OVCAR-4
[10] = system: RPMI-8226
[11] = system: RXF 631
[12] = system: SF-295
[13] = system: SK-MEL-28
[14] = system: SK-MEL-2
[15] = system: SR
[16] = system: TK-10
[17] = system: UACC-257
[18] = system: MCF7
[19] = system: DMS-114
[20] = system: NCI/ADR-RES

| Compound | GI50 [1] | GI50 [2] | GI50 [3] | GI50 [4] | GI50 [5] | GI50 [6] | GI50 [7] | GI50 [8] | GI50 [9] | GI50 [10] | GI50 [11] | GI50 [12] | GI50 [13] | GI50 [14] | GI50 [15] | GI50 [16] | GI50 [17] | GI50 [18] | GI50 [19] | GI50 [20] |
| --- | --- | --- | --- | --- | --- | --- | --- | --- | --- | --- | --- | --- | --- | --- | --- | --- | --- | --- | --- | --- |
| O=C(CC1Sc2ccccc2NC1=O)Nc1ccccc1[N+](=O)[O-] (centres undefined) | > 100 µM (inactive) | > 100 µM (inactive) | > 100 µM (inactive) | > 100 µM (inactive) | > 100 µM (inactive) | 4.33 µM (inactive) | > 100 µM (inactive) | > 100 µM (inactive) | > 100 µM (inactive) | > 100 µM (inactive) | > 100 µM (inactive) | > 100 µM (inactive) | > 100 µM (inactive) | > 100 µM (inactive) | 12.2 µM (inactive) | > 100 µM (inactive) | > 100 µM (inactive) |  |  |  |
| Cc1n(CC(=O)c2ccc([N+](=O)[O-])cc2)c2c([n+]1CC(C)C)C(=O)c1ccccc1C2=O |  | < 0.02 µM (active) | < 0.0184 µM (active) | < 0.01 µM (active) |  | < 0.0204 µM (active) | < 0.01 µM (active) | < 0.04 µM (active) | < 0.0178 µM (active) | < 0.01 µM (active) |  | 0.329 µM (active) | 0.0411 µM (active) | < 0.0123 µM (active) |  |  | < 0.01 µM (active) | < 0.01 µM (active) |  |  |
| O=C1C(Cl)N(c2ccc([N+](=O)[O-])cc2)C1c1c[nH]c2ccccc12 (centres undefined) |  | 55.5 µM (inactive) |  |  | 36.2 µM (inactive) | 28.6 µM (inactive) | 86.9 µM (inactive) | 41.7 µM (inactive) | 53 µM (inactive) | 30.8 µM (inactive) |  | > 100 µM (inactive) | > 100 µM (inactive) | > 100 µM (inactive) | 19.5 µM (inactive) | > 100 µM (inactive) | 64.1 µM (inactive) |  | 38 µM (inactive) |  |
| c1ccc([P+](Cc2csnn2)(c2ccccc2)c2ccccc2)cc1 | > 100 µM (inactive) | > 100 µM (inactive) | > 100 µM (inactive) | > 100 µM (inactive) | > 100 µM (inactive) | > 100 µM (inactive) | > 100 µM (inactive) | > 100 µM (inactive) | > 100 µM (inactive) | > 100 µM (inactive) |  | > 100 µM (inactive) | > 100 µM (inactive) | > 100 µM (inactive) | > 100 µM (inactive) | > 100 µM (inactive) | > 100 µM (inactive) |  | 64 µM (inactive) |  |
| CCCCSCCC(N)P(=O)(O)O (centres undefined) | > 100 µM (inactive) | > 100 µM (inactive) |  | > 100 µM (inactive) |  | > 100 µM (inactive) | > 100 µM (inactive) | > 100 µM (inactive) | > 100 µM (inactive) | > 100 µM (inactive) |  | > 100 µM (inactive) | > 100 µM (inactive) | > 100 µM (inactive) | > 100 µM (inactive) | > 100 µM (inactive) | > 100 µM (inactive) | > 100 µM (inactive) |  | > 100 µM (inactive) |
| Cc1nc2c(n1C)C(=O)c1nc(CBr)[nH]c(=O)c1C2=O | > 100 µM (inactive) | > 100 µM (inactive) | > 100 µM (inactive) | 46.5 µM (inactive) | > 100 µM (inactive) | > 100 µM (inactive) | > 100 µM (inactive) | > 100 µM (inactive) |  | > 100 µM (inactive) |  | 0.938 µM (active) | > 100 µM (inactive) |  |  | > 100 µM (inactive) |  |  | 75.9 µM (inactive) |  |
| Cc1ccc(N2Cc3c(ccc4ccccc34)OP2(=S)N2CCCC2)cc1 (centres undefined) |  | > 100 µM (inactive) | > 100 µM (inactive) | > 100 µM (inactive) |  | > 44.5 µM (inactive) | > 100 µM (inactive) | > 100 µM (inactive) | > 100 µM (inactive) | > 22 µM (inactive) |  | > 67.8 µM (inactive) | > 100 µM (inactive) | > 100 µM (inactive) |  |  | > 100 µM (inactive) | > 100 µM (inactive) |  | > 100 µM (inactive) |
| O=NN(CC1(O)OCC(O)C(O)C1O)C(Cc1c[nH]c2ccccc12)C(=O)O (centres undefined) | > 100 µM (inactive) | > 100 µM (inactive) |  | > 100 µM (inactive) |  | > 100 µM (inactive) | > 100 µM (inactive) | > 100 µM (inactive) |  | > 100 µM (inactive) | > 100 µM (inactive) |  | > 100 µM (inactive) | > 100 µM (inactive) |  | > 100 µM (inactive) | > 100 µM (inactive) |  | > 100 µM (inactive) |  |
| COc1cccc(NC(=O)CC(=O)NN2C(=O)/C(=C/c3ccc(N(CCC#N)CCC#N)cc3)N=C2c2cc([N+](=O)[O-])ccc2Cl)c1 | > 100 µM (inactive) | > 100 µM (inactive) |  | > 100 µM (inactive) | 40.7 µM (inactive) | 3.53 µM (inactive) | > 100 µM (inactive) |  | 99.1 µM (inactive) | 30.3 µM (inactive) | > 100 µM (inactive) | 87.1 µM (inactive) | > 100 µM (inactive) | > 100 µM (inactive) | 22.4 µM (inactive) | > 100 µM (inactive) |  |  | 31 µM (inactive) |  |
| CC(=O)Oc1ccccc1[C@H]1CC(=O)C[C@H](c2ccccc2OC(C)=O)C12C(=O)c1ccccc1C2=O |  | 29.4 µM (inactive) |  |  |  | 17.8 µM (inactive) | 26.4 µM (inactive) | 19.1 µM (inactive) | 65.6 µM (inactive) | 59.6 µM (inactive) |  | 22.6 µM (inactive) | 17 µM (inactive) | 23.5 µM (inactive) | 79.4 µM (inactive) |  |  |  |  | 29.2 µM (inactive) |
| Cc1[nH]c(=O)[nH]c(=O)c1/C=C/C(=O)NC(CO)CC(C)C (centres undefined) |  | 322 µM (inactive) | 254 µM (inactive) | > 375 µM (inactive) |  | 237 µM (inactive) | > 362 µM (inactive) | 163 µM (inactive) | 214 µM (inactive) | > 375 µM (inactive) |  | > 375 µM (inactive) | 305 µM (inactive) | > 305 µM (inactive) |  |  | > 375 µM (inactive) | 228 µM (inactive) | 260 µM (inactive) | > 375 µM (inactive) |
| O=C(OCCO)C1CC2CC1C1(C2)OCCO1 (centres undefined) | > 100 µM (inactive) | > 100 µM (inactive) | > 100 µM (inactive) | > 100 µM (inactive) | > 100 µM (inactive) | > 100 µM (inactive) | > 100 µM (inactive) | > 100 µM (inactive) | > 100 µM (inactive) | > 100 µM (inactive) |  | > 100 µM (inactive) | > 100 µM (inactive) | > 100 µM (inactive) |  | > 100 µM (inactive) | > 100 µM (inactive) |  | > 100 µM (inactive) |  |
| COc1ccc(CCn2nccc2C)cc1 | > 100 µM (inactive) | > 100 µM (inactive) |  | > 100 µM (inactive) |  | > 100 µM (inactive) | > 100 µM (inactive) | > 100 µM (inactive) | > 100 µM (inactive) | > 100 µM (inactive) |  | > 100 µM (inactive) | > 100 µM (inactive) |  | > 100 µM (inactive) | > 100 µM (inactive) | > 100 µM (inactive) | > 100 µM (inactive) |  | > 100 µM (inactive) |
| CC1(Cl)CC2C(CC1Sc1nnnn1-c1ccccc1)C2(C)C (centres undefined) | 75.5 µM (inactive) | 69.8 µM (inactive) |  | > 100 µM (inactive) | 60.3 µM (inactive) | 30.1 µM (inactive) | 64.3 µM (inactive) | 89.9 µM (inactive) | > 100 µM (inactive) | 27.8 µM (inactive) |  | 40.8 µM (inactive) | > 100 µM (inactive) | > 100 µM (inactive) | 29.6 µM (inactive) | > 100 µM (inactive) | 87.3 µM (inactive) |  | 45.9 µM (inactive) |  |
| Cc1ccc(SSCCCCCS(=O)O)cc1 | 57.7 µM (inactive) | 14.6 µM (inactive) |  | 16.8 µM (inactive) | 14.6 µM (inactive) | 6.34 µM (inactive) | 28.2 µM (inactive) | 48.5 µM (inactive) | 40 µM (inactive) | 24.9 µM (inactive) | 25.9 µM (inactive) |  | 46.5 µM (inactive) | 25.8 µM (inactive) | 4.62 µM (inactive) | 26.9 µM (inactive) | 31.2 µM (inactive) |  | 21 µM (inactive) |  |
| CSCC[C@@H](NC(=O)[C@H](CC(C)C)NC(=O)C(Cc1cnc[nH]1)NC(=O)CNC(=O)[C@@H](NC(=O)[C@H](C)NC(=O)[C@H](Cc1cn(C=O)c2ccccc12)NC(=O)[C@H](CCC(N)=O)NC(=O)[C@@H](N)CC(N)=O)C(C)C)C(N)=O (some centres undefined) |  | > 100 µM (inactive) | > 100 µM (inactive) | 53.8 µM (inactive) |  | > 100 µM (inactive) | > 100 µM (inactive) | > 100 µM (inactive) | > 100 µM (inactive) | > 100 µM (inactive) |  | > 100 µM (inactive) | > 100 µM (inactive) | > 100 µM (inactive) |  |  | > 100 µM (inactive) | > 100 µM (inactive) | > 100 µM (inactive) | > 100 µM (inactive) |
| NCCCCCC(CCN)SCC1OC(n2cnc3c(N)ncnc32)C(O)C1O (centres undefined) |  | 233 µM (inactive) | 6.76 µM (inactive) | > 1060 µM (inactive) |  | 551 µM (inactive) | 764 µM (inactive) | 379 µM (inactive) | > 1440 µM (inactive) | 292 µM (inactive) |  | 469 µM (inactive) | 578 µM (inactive) | > 1500 µM (inactive) |  |  | > 1260 µM (inactive) | > 1500 µM (inactive) | 339 µM (inactive) | > 948 µM (inactive) |
| COc1ccccc1-c1cc(O)c2cc(C)cnc2n1 | 68.7 µM (inactive) |  |  | 46 µM (inactive) |  | 31.5 µM (inactive) | 40 µM (inactive) |  | > 100 µM (inactive) | 30.4 µM (inactive) |  |  | 22.6 µM (inactive) | 25.2 µM (inactive) | > 100 µM (inactive) | > 100 µM (inactive) | 38 µM (inactive) | 47.5 µM (inactive) |  | 15 µM (inactive) |
